Measurements taken from DBAASP.
Converted amounts (≈) assume the structure as drawn. Values belong to the molecule of their own block, whether it stands above or below them.

Columns and labels:
Test in all cases: ≥ marks a high value that may be exact or a test limit, other limits are often not marked, values filed in µg/mL are converted to µM
[1] = test system: Escherichia coli O157:H7 ATCC 43895
Escherichia coli U16318 = test system: Escherichia coli U16318
[2] = test system: Cryptococcus neoformans B3501
[3] = test system: Staphylococcus aureus B38302
Klebsiella pneumoniae = test system: Klebsiella pneumoniae
Escherichia coli 37 = test system: Escherichia coli 37
[4] = test system: Enterococcus faecalis ATCC 29212
[5] = test system: Staphylococcus aureus ATCC 25923
[6] = test system: Candida albicans ATCC 90028
Shigella dysenteriae = test system: Shigella dysenteriae
Staphylococcus aureus 37 = test system: Staphylococcus aureus 37
Staphylococcus aureus 10 = test system: Staphylococcus aureus 10
[7] = test system: Candida parapsilosis ATCC 22019
[8] = test system: Enterobacter cloacae ATCC 13047
Pseudomonas aeruginosa = test system: Pseudomonas aeruginosa
[9] = test system: Pseudomonas aeruginosa CMCCB 1010
Escherichia coli 117 = test system: Escherichia coli 117
[10] = test system: Candida albicans ATCC 2002
[11] = test system: Pseudomonas aeruginosa ATCC 27853
[12] = test system: Escherichia coli ATCC 25922
[13] = test system: Klebsiella pneumoniae ATCC 700603
Escherichia coli 170 = test system: Escherichia coli 170
[14] = test system: Pseudomonas aeruginosa 5106
[15] = test system: Enterobacter cloacae 2524
[16] = test system: Streptococcus pneumoniae ATCC 49619
Acinetobacter baumannii = test system: Acinetobacter baumannii
Escherichia coli 4530 = test system: Escherichia coli 4530
[17] = test system: Klebsiella pneumoniae ST258
Escherichia coli 5580 = test system: Escherichia coli 5580
[18] = test system: Pseudomonas aeruginosa 4677
Salmonella typhimurium = test system: Salmonella typhimurium
[19] = test system: Klebsiella pneumoniae 913
[20] = test system: Pseudomonas aeruginosa 3599
[21] = test system: Staphylococcus epidermidis NBRC 12933
[22] = test system: Bacillus megaterium ATCC 19213
[23] = test system: Bacillus subtilis NBRC 3513
[24] = test system: Staphylococcus aureus NBRC 12732
[25] = test system: Candida albicans ATCC 36802
[26] = test system: Candida albicans IOC 4558
[27] = test system: Candida tropicalis IOC 4560
[28] = test system: Trichophyton rubrum IOC 4527
[29] = test system: Trichosporon sp. IOC 4569
[30] = test system: Aspergillus fumigatus IOC 4526
Candida krusei IOC 4559 = test system: Candida krusei IOC 4559
[31] = test system: Cryptococcus neoformans IOC 4528
[32] = test system: Candida parapsilosis IOC 4564
Escherichia coli SBS 363 = test system: Escherichia coli SBS 363
[33] = test system: Candida glabrata IOC 4565
[34] = test system: Cryptococcus neoformans ATCC 90112
[35] = test system: Staphylococcus aureus ATCC 29213
[36] = test system: Staphylococcus aureus KCTC 1621
Proteus vulgaris = test system: Proteus vulgaris
[37] = test system: Bacillus megaterium KCTC 1096
[38] = test system: Bacillus subtilis KCTC 1918
[39] = test system: Pseudomonas aeruginosa KCTC 1637
[40] = test system: Escherichia coli KCTC 1682

MIC [25]: ≥ 52 µM
MIC [26]: ≥ 41.6 µM
MIC [27]: ≥ 41.6 µM
MIC [28]: ≥ 52 µM
MIC [29]: ≥ 41.6 µM
MIC [30]: ≥ 52 µM
MIC (Candida krusei IOC 4559): 29.4 µM (≈ 56.6 µg/mL)
MIC [31]: 4.41 µM (≈ 8.49 µg/mL)
MIC [32]: ≥ 41.6 µM
MIC (Escherichia coli SBS 363): ≥ 41.6 µM
MIC [33]: ≥ 41.6 µM
MIC [34]: 4.41 µM (≈ 8.49 µg/mL)
MIC [11]: > 41.6 µM
MIC [35]: > 41.6 µM
Compound: CC[C@H](C)[C@H](NC(=O)[C@H](CCCCN)NC(=O)[C@H](CCC(=O)O)NC(=O)[C@H](CCCCN)NC(=O)[C@@H]1CCCN1C(=O)[C@H](Cc1ccccc1)NC(=O)[C@H](CO)NC(=O)[C@H](Cc1cnc[nH]1)NC(=O)CNC(=O)CNC(=O)[C@H](CCCCN)NC(=O)[C@H](CCCCN)NC(=O)[C@H](Cc1cnc[nH]1)NC(=O)[C@H](CO)NC(=O)[C@H](CCC(N)=O)NC(=O)[C@@H](N)CCCCN)C(=O)N[C@@H](CO)C(=O)O [KQSHKKGGHSFPKEKIS]

MIC [36]: 6.25 µM (≈ 11.1 µg/mL)
MIC (Proteus vulgaris): 3.12 µM (≈ 5.54 µg/mL)
MIC [37]: 3.12 µM (≈ 5.54 µg/mL)
MIC [38]: 1.56 µM (≈ 2.77 µg/mL)
MIC [39]: 12.5 µM (≈ 22.2 µg/mL)
MIC [40]: 8.84 µM (≈ 15.7 µg/mL)
Compound: CC[C@H](C)[C@H](NC(=O)[C@H](CCCCN)NC(=O)[C@H](CCCCN)NC(=O)[C@H](Cc1ccccc1)NC(=O)[C@H](CC(C)C)NC(=O)[C@H](CCCCN)NC(=O)[C@H](Cc1c[nH]c2ccccc12)NC(=O)[C@@H](N)CCCCN)C(=O)N1CCC[C@H]1C(=O)N[C@@H](CC(C)C)C(=O)N[C@@H](C)C(=O)N[C@@H](CCCCN)C(=O)N[C@@H](CCCCN)C(=O)N[C@@H](Cc1ccccc1)C(N)=O [KWKLFKKIPLAKKF]

Second part, the molecule before the results:

Compound: CC(C)C[C@H](NC(=O)[C@H](C)N)C(=O)N[C@@H](Cc1c[nH]c2ccccc12)C(=O)N[C@@H](CCCCN)C(=O)N[C@H](C(=O)N[C@@H](CC(C)C)C(=O)N[C@@H](CC(C)C)C(=O)N[C@@H](CCCCN)C(=O)N[C@@H](CCCCN)C(=O)N[C@H](C(N)=O)C(C)C)[C@@H](C)O [ALWKTLLKKV]
MIC [1]: ≥ 32 µM
MIC (Escherichia coli U16318): ≥ 50 µM
MIC [2]: 30 µM (≈ 36 µg/mL)
MIC [3]: ≥ 50 µM

Compound: CC[C@H](C)[C@H](NC(=O)[C@@H](NC(=O)[C@@H]1CCCN1C(=O)[C@H](CC(C)C)NC(=O)[C@@H](N)Cc1ccccc1)[C@@H](C)CC)C(=O)NCC(=O)N[C@@H](CCCCN)C(=O)N[C@@H](CC(C)C)C(=O)N[C@@H](CC(C)C)C(=O)N[C@@H](CO)C(=O)NCC(=O)O [FLPIIGKLLSG]
MIC (Klebsiella pneumoniae): 69.1 µM (≈ 80 µg/mL)
MIC (Escherichia coli 37): 17.3 µM (≈ 20 µg/mL)
MIC [4]: 17.3 µM (≈ 20 µg/mL)
MIC [5]: 2.16 µM (≈ 2.5 µg/mL)
MIC [6]: 17.3 µM (≈ 20 µg/mL)
MIC (Shigella dysenteriae): 4.32 µM (≈ 5 µg/mL)
MIC (Staphylococcus aureus 37): 4.32 µM (≈ 5 µg/mL)
MIC (Staphylococcus aureus 10): 8.64 µM (≈ 10 µg/mL)
MIC [7]: 4.32 µM (≈ 5 µg/mL)
MIC [8]: 2.16 µM (≈ 2.5 µg/mL)
MIC (Pseudomonas aeruginosa): 8.64 µM (≈ 10 µg/mL)
MIC [9]: 17.3 µM (≈ 20 µg/mL)
MIC (Escherichia coli 117): 4.32 µM (≈ 5 µg/mL)
MIC [10]: 8.64 µM (≈ 10 µg/mL)
MIC [11]: 34.6 µM (≈ 40 µg/mL)
MIC [12]: 4.32 µM (≈ 5 µg/mL)
MIC [13]: 8.64 µM (≈ 10 µg/mL)

Compound: CC[C@H](C)[C@H](NC(=O)CN)C(=O)N[C@@H](CC(C)C)C(=O)N[C@@H](CCCCN)C(=O)N[C@H](C(=O)N[C@H](C(=O)N[C@@H](CCCCN)C(=O)N[C@@H](CO)C(=O)N[C@H](C(=O)N[C@@H](C)C(=O)N[C@@H](CO)C(=O)N[C@@H](CCCCN)C(=O)N[C@H](C(=O)N[C@@H](C)C(=O)N[C@@H](CC(N)=O)C(=O)N[C@H](C(=O)N[C@H](C(=O)N[C@@H](CCC(N)=O)C(=O)N[C@@H](CCCCN)C(=O)N[C@@H](CC(C)C)C(=O)N[C@@H](CCCCN)C(=O)N[C@@H](CCCN=C(N)N)C(=O)N[C@@H](CCCCN)C(=O)N[C@@H](C)C(=O)N[C@@H](CCCCN)C(=O)N[C@@H](CC(N)=O)C(=O)N[C@@H](C)C(=O)N[C@H](C(=O)O)C(C)C)C(C)C)[C@@H](C)O)C(C)C)[C@@H](C)CC)[C@@H](C)CC)[C@@H](C)O [GILKTIKSIASKVANTVQKLKRKAKNAV]
MIC (Escherichia coli 170): 0.8 µM (≈ 2.41 µg/mL)
MIC [14]: 12 µM (≈ 36.1 µg/mL)
MIC [5]: > 16.6 µM
MIC [15]: 3.1 µM (≈ 9.33 µg/mL)
MIC [16]: ≥ 50 µM
MIC (Acinetobacter baumannii): 3.1 µM (≈ 9.33 µg/mL)
MIC (Escherichia coli 4530): 3.1 µM (≈ 9.33 µg/mL)
MIC [17]: 16.6 µM (≈ 50 µg/mL)
MIC (Escherichia coli 5580): 1.6 µM (≈ 4.81 µg/mL)
MIC [18]: 6.2 µM (≈ 18.7 µg/mL)
MIC (Salmonella typhimurium): 2.23 µM (≈ 6.7 µg/mL)
MIC [11]: 8.31 µM (≈ 25 µg/mL)
MIC [12]: 1.6 µM (≈ 4.81 µg/mL)
MIC [19]: 3.1 µM (≈ 9.33 µg/mL)
MIC [20]: ≥ 50 µM

Compound: CC(C)C[C@H](NC(=O)[C@@H](N)CCCCN)C(=O)NCC(=O)N[C@@H](Cc1cnc[nH]1)C(=O)N[C@@H](Cc1cnc[nH]1)C(=O)NCC(=O)N[C@@H](CCCN=C(N)N)C(=O)N[C@@H](C)C(=O)N1CCC[C@H]1C(=O)N1CCC[C@H]1C(=O)O [KLGHHGRAPP]
MIC [21]: ≥ 128 µM
MIC [22]: ≥ 128 µM
MIC [23]: ≥ 128 µM
MIC [24]: ≥ 128 µM
